Experimental data published in PMC3985299, “Single Ascending Dose Safety and Pharmacokinetics of CDRI-97/78: First-in-Human Study of a Novel Antimalarial Drug” (Malaria Research and Treatment, 2014).
“Also recorded” adds a separate entry of the source.

System: healthy human volunteers
Assay: Single ascending dose, placebo-controlled phase I study: adverse events, tolerability, MTD
Type: in vivo
Conditions: for Severity grade: CTCAE v4.0
Description: This was a single ascending dose, placebo-controlled, randomized, double blind trial. Randomization was carried out by computer generated random number sequence. Randomization was carried out for the drug and the placebo in a 3 : 1 ratio for each dose level. The drugs were dispensed in sealed bottles with the randomization code written on them. Randomization codes were provided in sealed opaque envelopes with the protocol specification that the codes may be opened by the investigator only in case of a serious or severe adverse event.
This was used to obtain a dose of 96 mg for a 60 kg person. […] The following dose levels were evaluated: 80, 160, 320, 400, 500, 600, and 700 mg. The starting dose was calculated by allometric scaling from animals. At each dose level, six volunteers received CDRI 97/78 and two received placebo except at 700 mg where only two volunteers were given this dose. At each dose level, volunteers were assessed before proceeding to the next dose.
The decision to stop the dose escalation was based on the appearance of the dose limiting toxicity (DLT) which was defined as the dose at which any of the following appeared: severe nausea, vomiting, heartburn, headache, remarkable change in vital parameters such as blood pressure, heart rate, respiratory rate or oxygen saturation of blood, changes in QT interval, or any event that in the opinion of the investigators required stopping of the trial.
In case this was not achieved, it was planned not to dose volunteers beyond 700 mg.
The volunteers after giving informed consent were screened. The screening process was done latest within 1 month of admission for dosing. The volunteers who fulfilled the inclusion/exclusion criteria were admitted in the CPU the night before drug administration. Standardized dinner was served at 9 pm the night prior to dosing. On day 0, baseline blood sample for biochemical and haematological examination and stool and urine samples for routine and microscopy were taken. They received the study drug, according to the randomization sequence, under supervision. The empty packaging was returned to the container. The volunteers received drug as per randomization. Breakfast was given half an hour after drug administration. Subsequently, standardized lunch and dinner were served to the volunteers.
The subjects were attached to a cardiac monitor and vital HR, BP, ECG, oxygen saturation, and RR were recorded. Corrected QT interval using Fridericia's formula was calculated. […] Unscheduled monitoring was undertaken whenever it felt necessary. […] At the end of the 7th day, they were said to have completed the study. […] The study was monitored by a Data Safety Monitoring Board.

[1] = AE Heaviness of head, 80 mg group
[2] = AE Visual disturbances, 320 mg group
[3] = single oral dose 80-700 mg, healthy male volunteers
[4] = volunteers given 500 mg, 600 mg (and placebo)

In the case of `C=C(c1ccc(OC(C)(C)COC(=O)CCC(=O)O)cc1)C1COC2(OO1)C1CC3CC(C1)CC2C3` (stereo not drawn) [CDRI 97/78, Mono[2methyl2[3(1spiro[tricycle[3.3.1.13,7]decane2,3′-[1,2,4]trioxan] 6′-ylethenyl)phenoxy]propyl] ester], the No. of events (80 mg, Heaviness of head) is reported as 1, the “Type of adverse events” value (160 mg) is reported as “None” and the No. of events (320 mg, Visual disturbance) is reported as 1. For the same compound, the No. of events (400 mg, Bradycardia) was 1, the No. of events (400 mg, Drowsiness) was 1 and the No. of events (400 mg, Itching) was 1. It also gave a No. of events (500 mg, Nausea) of 1, a No. of events (500 mg, Sedation) of 1 and a No. of events (600 and 700 mg, Sedation) of 1. For the same compound, the Causality assessment (AE Bradycardia, 400 mg group) was “Possible (possible (>5% but ≤50% chance of being drug related)”, the “Duration of AE” value (AE Bradycardia, 400 mg group) was 60 min and the “Reversal complete (yes or no)” value (AE Bradycardia, 400 mg group) was “Yes”. The “Spontaneous reversal (yes or no)” value (AE Bradycardia, 400 mg group) was “Yes”, the “Time (hrs) of onset after drug administration” value (shortened to “Time (hrs) of onset”) (AE Bradycardia, 400 mg group) was 1 h and the Treatment given (AE Bradycardia, 400 mg group) was “None”. For the same compound, the Severity grade (AE Bradycardia, 400 mg group) was 1, the Causality assessment (AE Drowsiness, 400 mg group) was “Possible (possible (>5% but ≤50% chance of being drug related)” and the “Duration of AE” value (AE Drowsiness, 400 mg group) was 60 min. For the same compound, the “Reversal complete (yes or no)” value (AE Drowsiness, 400 mg group) was “Yes”, the “Spontaneous reversal (yes or no)” value (AE Drowsiness, 400 mg group) was “Yes” and the “Time (hrs) of onset” value (AE Drowsiness, 400 mg group) was 2 h. The Treatment given (AE Drowsiness, 400 mg group) was “None”, the Severity grade (AE Drowsiness, 400 mg group) was 1 and the Causality assessment [1] was “Possible (possible (>5% but ≤50% chance of being drug related)”. For the same compound, the “Duration of AE” value [1] was 15 min, the “Reversal complete (yes or no)” value [1] was “Yes” and the “Spontaneous reversal (yes or no)” value [1] was “Yes”. For the same compound, the “Time (hrs) of onset” value [1] was 0.25 h, the Treatment given [1] was “None” and the Severity grade [1] was 1. For the same compound, the Causality assessment (AE Itching, 400 mg group) was “Possible (possible (>5% but ≤50% chance of being drug related)”, the “Duration of AE” value (AE Itching, 400 mg group) was 8 min and the “Reversal complete (yes or no)” value (AE Itching, 400 mg group) was “Yes”. The “Spontaneous reversal (yes or no)” value (AE Itching, 400 mg group) was “Yes”, the “Time (hrs) of onset” value (AE Itching, 400 mg group) was 24 h and the Treatment given (AE Itching, 400 mg group) was “None”. For the same compound, the Severity grade (AE Itching, 400 mg group) was 1, the Causality assessment (AE Nausea, 500 mg group) was “Possible (possible (>5% but ≤50% chance of being drug related)” and the “Duration of AE” value (AE Nausea, 500 mg group) was 20 min. For the same compound, the “Reversal complete (yes or no)” value (AE Nausea, 500 mg group) was “Yes”, the “Spontaneous reversal (yes or no)” value (AE Nausea, 500 mg group) was “Yes” and the “Time (hrs) of onset” value (AE Nausea, 500 mg group) was 0.25 h. The Treatment given (AE Nausea, 500 mg group) was “None”, the Severity grade (AE Nausea, 500 mg group) was 1 and the Causality assessment (AE Sedation, 500 mg group) was “Possible (possible (>5% but ≤50% chance of being drug related)”. For the same compound, the “Duration of AE” value (AE Sedation, 500 mg group) was 120 min, the “Reversal complete (yes or no)” value (AE Sedation, 500 mg group) was “Yes” and the “Spontaneous reversal (yes or no)” value (AE Sedation, 500 mg group) was “Yes”. For the same compound, the “Time (hrs) of onset” value (AE Sedation, 500 mg group) was 2 h, the Treatment given (AE Sedation, 500 mg group) was “None” and the Severity grade (AE Sedation, 500 mg group) was 1-2. The Causality assessment (AE Sedation, 600 mg group) was “Possible (possible (>5% but ≤50% chance of being drug related)”, the “Duration of AE” value (AE Sedation, 600 mg group) was 60 min and the “Reversal complete (yes or no)” value (AE Sedation, 600 mg group) was “Yes”. The “Spontaneous reversal (yes or no)” value (AE Sedation, 600 mg group) was “Yes”, the “Time (hrs) of onset” value (AE Sedation, 600 mg group) was 2 h and the Treatment given (AE Sedation, 600 mg group) was “None”. The Severity grade (AE Sedation, 600 mg group) was 1-2, the Causality assessment [2] was “Remote (remote (<5% chance of being drug related))” and the “Duration of AE” value [2] was 2 to 3 min. For the same compound, the “Reversal complete (yes or no)” value [2] was “Yes”, the “Spontaneous reversal (yes or no)” value [2] was “Yes” and the “Time (hrs) of onset” value [2] was 36 h. For the same compound, the Treatment given [2] was “None”, the Severity grade [2] was 1 and the “Heart rate during adverse event bradycardia” value (adverse event bradycardia) was 56-57 bpm. The “Incidence of adverse events, drug vs placebo groups” value (all dose levels, P = 0.43) was “no significant difference”, the Serious adverse events (single oral dose 80-700 mg) was “No serious adverse events were reported” and the “MTD (maximum tolerated dose)” value [3] was “not reached; also recorded: could not be determined”. The Tolerability / safety [3] was “well tolerated; also recorded: safe and tolerable”, the “Sedation: duration” value [4] was 1 to 2 h and the “Sedation: time of onset after drug administration” value [4] was “about 2 hours”.
